IC50 data for 22 molecules are collected here from patent US20260297083A1, “SUBSTITUTED ACETYLENE COMPOUND DERIVATIVES AND THEIR PHARMACEUTICAL USE” (AVELOS THERAPEUTICS INC., priority 2023, published 2026).

The assay has as its system DLD-1 BRCA2(−/−) Cell. The experiment in a line: Cell viability assay (Resazurin) in DLD1-BRCA2 cells. In kind it is cell-based. The note with it: Homo sapiens, DLD-1, 336 h, 14 days, 1,500 cells/well, final DMSO 1%. The essentials:
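DLD1-BRCA2 KG cells seeded at 1,500/well (parental 600/well) in RPMI-1640 with 10% FBS, compound added after 4 h (1% DMSO), media replaced every 3-4 days over 14 days at 37° C. Viability read by resazurin (0.1 mg/ml, 4 h) fluorescence at Ex/Em 560/590 nm; IC50 fitted.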
In the case of `Cc1cc(C(F)(F)F)cc(N2[C@H](C(=O)N(CC#Cc3nc(C(N)=O)co3)c3ccc(F)c(C)c3)CCS2(=O)=O)n1` [Example 104, (S)-2-(3-(N-(4-fluoro-3-methylphenyl)-2-(6-methyl-4-(trifluoromethyl)pyridin-2-yl)-1,1-dioxidoisothiazolidine-3-carboxamido)prop-1-yn-1-yl)oxazole-4-carboxamide], the IC50 (in general, the midpoint of a concentration-inhibition curve) was below 1 µM.

`Cc1cc(C(F)(F)F)cc(N2[C@H](C(=O)N(CC#Cc3ccc(C(N)=O)nc3)c3ccc(F)c(C)c3)CCS2(=O)=O)n1` [Example 95, (S)-N-(3-(6-carbamoylpyridin-3-yl)prop-2-yn-1-yl)-N-(4-fluoro-3-methylphenyl)-2-(6-methyl-4-(trifluoromethyl)pyridin-2-yl)isothiazolidine-3-carboxamide 1,1-dioxide] had an IC50 below 1 µM.

Molecule `CCN1CCN(c2cnc(C#CCN(C(=O)[C@@H]3CCS(=O)(=O)N3c3cc(C(F)(F)F)cc(C)n3)c3cc(C)ccc3F)cn2)CC1` [Example 51, (S)-N-(3-(5-(4-ethylpiperazin-1-yl)pyrazin-2-yl)prop-2-yn-1-yl)-N-(2-fluoro-5-methylphenyl)-2-(6-methyl-4-(trifluoromethyl)pyridin-2-yl)isothiazolidine-3-carboxamide 1,1-dioxide] gave an IC50 below 1 µM.

With `Cc1cc(C(F)(F)F)cc(N2[C@H](C(=O)N(CC#Cc3cnc4c(c3)CN(C)C4=O)c3ccc(F)c(C)c3)CCS2(=O)=O)n1` [Example 98, (S)-N-(4-fluoro-3-methylphenyl)-2-(6-methyl-4-(trifluoromethyl)pyridin-2-yl)-N-(3-(6-methyl-7-oxo-6,7-dihydro-5H-pyrrolo[3,4-b]pyridin-3-yl)prop-2-yn-1-yl)isothiazolidine-3-carboxamide 1,1-dioxide], the IC50 is below 1 µM.

Molecule `Cc1cc(C(F)(F)F)cc(N2[C@H](C(=O)N(CC#Cc3cnc(C(=O)N(C)C)cn3)c3ccc(F)c(C)c3)CCS2(=O)=O)n1` [Example 68, (S)-N-(3-(5-(dimethylcarbamoyl)pyrazin-2-yl)prop-2-yn-1-yl)-N-(4-fluoro-3-methylphenyl)-2-(6-methyl-4-(trifluoromethyl)pyridin-2-yl)isothiazolidine-3-carboxamide 1,1-dioxide] yielded an IC50 below 1 µM.

The molecule `Cc1cccc(N(CC#Cc2ccc(N)nn2)C(=O)[C@@H]2CN(C)S(=O)(=O)N2c2cc(C(F)(F)F)cc(C)n2)c1` [Example 107, (3S)-N-[3-(6-aminopyridazin-3-yl)prop-2-ynyl]-5-methyl-2-[6-methyl-4-(trifluoromethyl)-2-pyridyl]-N-(m-tolyl)-1,1-dioxo-1,2,5-thiadiazolidine-3-carboxamide] displayed an IC50 of 1.1 to 5 µM.

Turning to `Cc1cc(C(F)(F)F)cc(N2C(=O)CC[C@H]2C(=O)N(CC#Cc2ccc(F)cn2)c2ccc(F)c(C)c2)n1` [Example 8, (S)-N-(4-fluoro-3-methylphenyl)-N-(3-(5-fluoropyridin-2-yl)prop-2-yn-1-yl)-1-(6-methyl-4-(trifluoromethyl)pyridin-2-yl)-5-oxopyrrolidine-2-carboxamide], the IC50 was below 1 µM.

Molecule `Cc1cc(C(F)(F)F)cc(N2[C@H](C(=O)N(CC#Cc3ncc(C(=O)N4C5CCC4COC5)cn3)c3ccc(F)c(C)c3)CCS2(=O)=O)n1` [Example 83, (3S)-N-(3-(5-(3-oxa-8-azabicyclo[3.2.1]octane-8-carbonyl)pyrimidin-2-yl)prop-2-yn-1-yl)-N-(4-fluoro-3-methylphenyl)-2-(6-methyl-4-(trifluoromethyl)pyridin-2-yl)isothiazolidine-3-carboxamide 1,1-dioxide] gave an IC50 below 1 µM.

On to `Cc1cc(C(F)(F)F)cc(N2[C@H](C(=O)N(CC#Cc3cnc(N)cn3)c3ccc(F)c(C)c3F)CCS2(=O)=O)n1` [Example 17, (S)—N-(3-(5-aminopyrazin-2-yl)prop-2-yn-1-yl)-N-(2,4-difluoro-3-methylphenyl)-2-(6-methyl-4-(trifluoromethyl)pyridin-2-yl)isothiazolidine-3-carboxamide 1,1-dioxide], for which the IC50 is below 1 µM.

Turning to `Cc1cc(C(F)(F)F)cc(N2[C@H](C(=O)N(CC#Cc3cncc(C(=O)N4CCOCC4)n3)c3ccc(F)c(C)c3)CCS2(=O)=O)n1` [Example 70, (S)-N-(4-fluoro-3-methylphenyl)-2-(6-methyl-4-(trifluoromethyl)pyridin-2-yl)-N-(3-(6-(morpholine-4-carbonyl)pyrazin-2-yl)prop-2-yn-1-yl)isothiazolidine-3-carboxamide 1,1-dioxide], the IC50 was 1.1 to 5 µM.

On to `Cc1cc(C(F)(F)F)cc(N2[C@H](C(=O)N(CC#Cc3cnc(C(=O)O)cn3)c3ccc(F)c(C)c3)CCS2(=O)=O)n1` [Example 60, (S)-5-(3-(N-(4-fluoro-3-methylphenyl)-2-(6-methyl-4-(trifluoromethyl)pyridin-2-yl)-1,1-dioxidoisothiazolidine-3-carboxamido)prop-1-yn-1-yl)pyrazine-2-carboxylic acid], for which the IC50 was above 5.1 µM.

`Cc1cc(C(F)(F)F)cc(N2[C@H](C(=O)N(CC#Cc3cnc4c(c3)C(=O)N(C)C4=O)c3ccc(F)c(C)c3)CCS2(=O)=O)n1` [Example 100, (S)-N-(4-fluoro-3-methylphenyl)-2-(6-methyl-4-(trifluoromethyl)pyridin-2-yl)-N-(3-(6-methyl-5,7-dioxo-6,7-dihydro-5H-pyrrolo[3,4-b]pyridin-3-yl)prop-2-yn-1-yl)isothiazolidine-3-carboxamide 1,1-dioxide] had an IC50 above 5.1 µM.

Consider `Cc1cc(C(F)(F)F)cc(N2C(=O)CC[C@H]2C(=O)N(CC#Cc2ccc(N)nn2)c2ccc(F)c(C)c2)n1` [Example 5, (2S)-N-(3-(6-aminopyridazin-3-yl)prop-2-ynyl]-N-(4-fluoro-3-methyl-phenyl)-1-[6-methyl-4-(trifluoromethyl)-2-pyridyl]-5-oxo-pyrrolidine-2-carboxamide], for which the IC50 is below 1 µM.

In turn, `Cc1cccc(N(CC#Cc2cnc(N)cn2)C(=O)[C@@H]2CN(C)S(=O)(=O)N2c2cc(C(F)(F)F)cc(C)n2)c1` [Example 108, (S)-N-(3-(5-aminopyrazin-2-yl)prop-2-yn-1-yl)-5-methyl-2-(6-methyl-4-(trifluoromethyl)pyridin-2-yl)-N-(m-tolyl)-1,2,5-thiadiazolidine-3-carboxamide 1,1-dioxide] had an IC50 of 1.1 to 5 µM.

In turn, `Cc1cc(C(F)(F)F)cc(N2[C@H](C(=O)N(CC#Cc3ccc(C(N)=O)cc3)c3ccc(F)c(C)c3)CCS2(=O)=O)n1` [Example 105, (S)-N-(3-(4-carbamoylphenyl)prop-2-yn-1-yl)-N-(4-fluoro-3-methylphenyl)-2-(6-methyl-4-(trifluoromethyl)pyridin-2-yl)isothiazolidine-3-carboxamide 1,1-dioxide] displayed a concentration for half-maximal inhibition (IC50) of 1.1 to 5 µM.

Consider `Cc1cc(C(F)(F)F)cc(N2[C@H](C(=O)N(CC#Cc3ccc(N4CCOCC4)cn3)c3ccc(F)c(C)c3)CCS2(=O)=O)n1` [Example 84, (S)-N-(4-fluoro-3-methylphenyl)-2-(6-methyl-4-(trifluoromethyl)pyridin-2-yl)-N-(3-(5-morpholinopyridin-2-yl)prop-2-yn-1-yl)isothiazolidine-3-carboxamide 1,1-dioxide], for which the IC50 was below 1 µM.

As to `Cc1cc(C(F)(F)F)cc(N2[C@H](C(=O)N(CC#Cc3cnc(N4CCOCC4)c(C(F)(F)F)n3)c3ccc(F)c(C)c3)CCS2(=O)=O)n1` [Example 46, (S)-N-(4-fluoro-3-methylphenyl)-2-(6-methyl-4-(trifluoromethyl)pyridin-2-yl)-N-(3-(5-morpholino-6-(trifluoromethyl)pyrazin-2-yl)prop-2-yn-1-yl)isothiazolidine-3-carboxamide 1,1-dioxide], the IC50 was in the range of 1.1 to 5 µM.

The molecule `Cc1cc(C(F)(F)F)cc(N2[C@H](C(=O)N(CC#Cc3ccc(N)nn3)c3ccc(F)c(C)c3)CN(C)S2(=O)=O)n1` [Example 109, (S)-N-(3-(6-aminopyridazin-3-yl)prop-2-yn-1-yl)-N-(4-fluoro-3-methylphenyl)-5-methyl-2-(6-methyl-4-(trifluoromethyl)pyridin-2-yl)-1,2,5-thiadiazolidine-3-carboxamide 1,1-dioxide] gave an IC50 of 1.1 to 5 µM.

Take `Cc1cc(C(F)(F)F)cc(N2C(=O)CC[C@H]2C(=O)N(CC#Cc2ccc(N)nn2)c2ccc(F)c(C)c2F)n1` [Example 2, (S)-N-(3-(6-aminopyridazin-3-yl)prop-2-yn-1-yl)-N-(2,4-difluoro-3-methylphenyl)-1-(6-methyl-4-(trifluoromethyl)pyridin-2-yl)-5-oxopyrrolidine-2-carboxamide]: the IC50 was below 1 µM.

In turn, `Cc1cc(C(F)(F)F)cc(N2[C@H](C(=O)N(CC#Cc3cnc(N4CC5CCC(C4)O5)cn3)c3ccc(F)c(C)c3)CCS2(=O)=O)n1` [Example 48, (3S)-N-(3-(5-(8-oxa-3-azabicyclo[3.2.1]octan-3-yl)pyrazin-2-yl)prop-2-yn-1-yl)-N-(4-fluoro-3-methylphenyl)-2-(6-methyl-4-(trifluoromethyl)pyridin-2-yl)isothiazolidine-3-carboxamide 1,1-dioxide] had an IC50 below 1 µM.

With `Cc1cc(C(F)(F)F)cc(N2[C@H](C(=O)N(CC#Cc3ncnc(N4CCOCC4)n3)c3ccc(F)c(C)c3)CCS2(=O)=O)n1` [Example 103, (S)-N-(4-fluoro-3-methylphenyl)-2-(6-methyl-4-(trifluoromethyl)pyridin-2-yl)-N-(3-(4-morpholino-1,3,5-triazin-2-yl)prop-2-yn-1-yl)isothiazolidine-3-carboxamide 1,1-dioxide], the IC50 was below 1 µM.

As for `Cc1cc(C(F)(F)F)cc(N2[C@H](C(=O)N(CC#Cc3ccc(C(N)=O)nc3C)c3ccc(F)c(C)c3)CCS2(=O)=O)n1` [Example 117, (S)-N-(3-(6-carbamoyl-2-methylpyridin-3-yl)prop-2-yn-1-yl)-N-(4-fluoro-3-methylphenyl)-2-(6-methyl-4-(trifluoromethyl)pyridin-2-yl)isothiazolidine-3-carboxamide 1,1-dioxide], the IC50 is below 1 µM.
